From ChEMBL document CHEMBL1159154, “Synthesis of new potent leukotriene B4 antagonists and their biological properties. 2” (Bioorg Med Chem Lett, 1994)
The source made the active and inactive calls. The rule behind the calls is not given here.

Assays:
Homo sapiens = species on record: Homo sapiens; assay: Concentration required for inhibitory activity against human PMNLs chemotaxis; assay type: functional, organism-based; details: PMNL
[1] = Partition coefficient in n-octanol/phosphate buffer, at pH 7.4; assay type: physicochemical
Cavia porcellus [2] = assay: In vivo inhibitory activity against LTB4-induced bronchoconstriction of guinea pig at dose of 5 mg/kg after 2 min of iv administration; Active; assay type: functional, organism-based; parameters: dose 5 mg/kg
Cavia porcellus [3] = assay: In vivo inhibitory activity against LTB4-induced bronchoconstriction of guinea pig at dose of 5 mg/kg after 10 min of iv administration; relatively active; assay type: functional, organism-based; parameters: dose 5 mg/kg
Cavia porcellus [4] = assay: In vivo inhibitory activity against LTB4-induced bronchoconstriction of guinea pig at dose of 5 mg/kg after 2 min of iv administration; relatively active; assay type: functional, organism-based; parameters: dose 5 mg/kg
Cavia porcellus [5] = assay: In vivo inhibitory activity against LTB4-induced bronchoconstriction of guinea pig at dose of 5 mg/kg after 30 min of iv administration; Active; assay type: functional, organism-based; parameters: dose 5 mg/kg
Cavia porcellus [6] = assay: In vivo inhibitory activity against LTB4-induced bronchoconstriction of guinea pig at dose of 5 mg/kg after 10 min of iv administration; Active; assay type: functional, organism-based; parameters: dose 5 mg/kg
Cavia porcellus [7] = assay: In vivo inhibitory activity against LTB4-induced bronchoconstriction of guinea pig at dose of 40 mg/kg after 60 min of po administration; Active; assay type: functional, organism-based; parameters: dose 40 mg/kg
Cavia porcellus [8] = assay: In vivo inhibitory activity against LTB4-induced bronchoconstriction of guinea pig at dose of 40 mg/kg after 60 min of po administration; relatively active; assay type: functional, organism-based; parameters: dose 40 mg/kg

CCc1cc(C(C)=O)c(O)cc1OCc1cccc(C(=O)N(CC)CCO)n1
IC50 (Homo sapiens): 1000 nM | logD [1]: 2.8 | Activity (Cavia porcellus [2]): Active

CCc1cc(C(C)=O)c(O)cc1OCc1cccc(C(=O)N[C@@H](CC(=O)O)C(=O)O)n1
Activity (Cavia porcellus [3]): Weak activity | IC50 (Homo sapiens): 900 nM | logD [1]: -1.8 | Activity (Cavia porcellus [4]): Weak activity

CCc1cc(C(C)=O)c(O)cc1OCc1ccc(C(=O)Nc2nc(CC(=O)O)cs2)cn1
IC50 (Homo sapiens): 700 nM

CCc1cc(C(C)=O)c(O)cc1OCc1cccc(C(=O)Nc2cccc(CC(=O)O)[n+]2[O-])n1
Activity (Cavia porcellus [5]): Active | Activity (Cavia porcellus [6]): Active | IC50 (Homo sapiens): 20 nM | logD [1]: 0.8 | Activity (Cavia porcellus [2]): Active

CCc1cc(C(C)=O)c(O)cc1OCc1cccc(C(=O)N(CC)CCC(=O)O)n1
Activity (Cavia porcellus [5]): Active | Activity (Cavia porcellus [6]): Active | IC50 (Homo sapiens): 300 nM | logD [1]: 0.1 | Activity (Cavia porcellus [7]): Active | Activity (Cavia porcellus [2]): Active

CCc1cc(C(C)=O)c(O)cc1OCc1cccc(C(=O)NCC(=O)O)n1
IC50 (Homo sapiens): 12000 nM

CCc1cc(C(C)=O)c(O)cc1OCc1nccc(C(=O)Nc2nc(CC(=O)O)cs2)n1
IC50 (Homo sapiens): 3000 nM

CCc1cc(C(C)=O)c(O)cc1OCc1cccc(C(=O)NCCO)n1
IC50 (Homo sapiens): 15000 nM

CCc1cc(C(C)=O)c(O)cc1OCc1cccc(C(=O)Nc2nc(CC(=O)O)cs2)n1
Activity (Cavia porcellus [3]): Weak activity | IC50 (Homo sapiens): 300 nM | logD [1]: 1.9

CCc1cc(C(C)=O)c(O)cc1OCc1cccc(C(=O)NCCC(=O)O)n1
Activity (Cavia porcellus [6]): Active | IC50 (Homo sapiens): 1000 nM | logD [1]: 0.7 | Activity (Cavia porcellus [2]): Active

CCc1cc(C(C)=O)c(O)cc1OCc1cccc(C(=O)Nc2nc(CC(=O)O)cs2)c1
IC50 (Homo sapiens): 5000 nM

CCc1cc(C(C)=O)c(O)cc1OCc1cccc(C(=O)Nc2cccc(CC(=O)O)n2)n1
IC50 (Homo sapiens): 800 nM | logD [1]: 1.1

CCc1cc(C(C)=O)c(O)cc1OCc1cccc(C(=O)N[C@@H](CO)C(=O)O)n1
Activity (Cavia porcellus [5]): Active | Activity (Cavia porcellus [8]): Weak activity | Activity (Cavia porcellus [6]): Active | IC50 (Homo sapiens): 300 nM | logD [1]: -0.3 | Activity (Cavia porcellus [2]): Active

CCCc1c(OCCCOc2ccc(C(C)=O)c(OC)c2CCC)ccc2c1OC(C(=O)O)CC2 (stereo not drawn) [SC-41390]
IC50 (Homo sapiens): 3300 nM

CCc1cc(C(C)=O)c(O)cc1OCc1cncc(C(=O)Nc2nc(CC(=O)O)cs2)n1
Activity (Cavia porcellus [3]): Weak activity | IC50 (Homo sapiens): 10000 nM | logD [1]: 0.6 | Activity (Cavia porcellus [2]): Active
